Measured values as given in ChEMBL document CHEMBL3352261, “Discovery of inhibitors of the mitotic kinase TTK based on N-(3-(3-sulfamoylphenyl)-1H-indazol-5-yl)-acetamides and carboxamides” (Bioorg Med Chem, 2014).
Converted amounts (≈) assume the structure as drawn. The source made the active and inactive calls. No cut-off for these calls is given here.

Columns and labels:
[1] = tested on: MDA-MB-468; assay: Growth inhibition of human MDA-MB-468 cells after 5 days by SRB assay; type: functional; details: MDA-MB-468, 120 h
[2] = Solubility of the compound at pH 7.4; type: physicochemical; details: buffer
[3] = biological target: T1, Dual specificity protein kinase TTK (Homo sapiens, UniProt P33981); assay: Inhibition of TTK in human HCT116 cells assessed as phosphorylation of histone H3 at Ser10 residue after 4 hrs by immunoassay; type: cell-based, HCT-116
T1 sequence (P33981 whole entry): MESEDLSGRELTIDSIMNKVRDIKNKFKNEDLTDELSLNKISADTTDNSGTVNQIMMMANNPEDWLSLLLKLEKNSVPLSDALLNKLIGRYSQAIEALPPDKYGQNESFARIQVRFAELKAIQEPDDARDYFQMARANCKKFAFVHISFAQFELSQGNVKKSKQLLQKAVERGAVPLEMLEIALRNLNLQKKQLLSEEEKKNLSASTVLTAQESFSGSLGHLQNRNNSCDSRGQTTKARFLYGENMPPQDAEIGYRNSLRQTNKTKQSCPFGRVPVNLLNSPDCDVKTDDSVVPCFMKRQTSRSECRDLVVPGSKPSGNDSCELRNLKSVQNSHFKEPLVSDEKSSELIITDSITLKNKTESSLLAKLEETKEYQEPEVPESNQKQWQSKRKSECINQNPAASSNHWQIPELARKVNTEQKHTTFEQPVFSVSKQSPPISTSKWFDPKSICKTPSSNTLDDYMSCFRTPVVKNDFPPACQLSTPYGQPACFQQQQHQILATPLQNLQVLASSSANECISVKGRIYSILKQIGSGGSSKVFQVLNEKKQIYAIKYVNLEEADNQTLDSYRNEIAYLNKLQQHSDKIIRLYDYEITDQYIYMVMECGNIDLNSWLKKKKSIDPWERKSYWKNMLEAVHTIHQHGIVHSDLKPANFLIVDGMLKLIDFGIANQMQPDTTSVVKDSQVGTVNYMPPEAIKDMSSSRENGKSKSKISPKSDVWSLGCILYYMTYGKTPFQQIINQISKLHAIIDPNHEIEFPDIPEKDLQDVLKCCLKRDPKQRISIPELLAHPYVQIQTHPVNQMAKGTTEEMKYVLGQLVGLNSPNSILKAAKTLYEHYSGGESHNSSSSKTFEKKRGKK

[4] = Growth inhibition of human HCT116 cells after 5 days by SRB assay; type: functional; details: HCT-116, 120 h
[5] = biological target: T2, Cytochrome P450 3A4 (Homo sapiens, UniProt P08684); assay: Inhibition of CYP3A4 in supersomes (unknown origin) using Dibenzylfluorescein as substrate after 10 mins; type: ADME
T2 sequence (P08684 whole entry): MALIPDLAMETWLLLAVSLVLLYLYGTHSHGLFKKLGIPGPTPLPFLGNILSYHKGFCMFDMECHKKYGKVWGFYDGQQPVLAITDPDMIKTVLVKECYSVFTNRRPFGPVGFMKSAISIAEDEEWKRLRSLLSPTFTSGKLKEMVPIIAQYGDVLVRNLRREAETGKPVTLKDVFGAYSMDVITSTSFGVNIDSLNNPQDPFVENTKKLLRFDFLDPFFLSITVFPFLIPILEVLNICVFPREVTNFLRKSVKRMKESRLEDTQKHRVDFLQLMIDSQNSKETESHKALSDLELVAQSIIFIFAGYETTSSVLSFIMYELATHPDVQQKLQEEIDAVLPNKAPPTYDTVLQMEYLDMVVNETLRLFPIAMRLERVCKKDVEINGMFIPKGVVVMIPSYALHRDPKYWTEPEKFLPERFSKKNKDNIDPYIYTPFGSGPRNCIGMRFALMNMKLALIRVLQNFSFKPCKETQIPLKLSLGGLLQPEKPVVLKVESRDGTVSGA

[6] = tested on: A549; assay: Growth inhibition of human A549 cells after 5 days by SRB assay; type: functional; details: A549, 120 h
[7] = biological target: Aurora kinase B (Homo sapiens, UniProt Q96GD4); assay: Inhibition of Aurora B (unknown origin) by FRET-based homogenous assay
Sequence of Aurora kinase B (Q96GD4 whole entry): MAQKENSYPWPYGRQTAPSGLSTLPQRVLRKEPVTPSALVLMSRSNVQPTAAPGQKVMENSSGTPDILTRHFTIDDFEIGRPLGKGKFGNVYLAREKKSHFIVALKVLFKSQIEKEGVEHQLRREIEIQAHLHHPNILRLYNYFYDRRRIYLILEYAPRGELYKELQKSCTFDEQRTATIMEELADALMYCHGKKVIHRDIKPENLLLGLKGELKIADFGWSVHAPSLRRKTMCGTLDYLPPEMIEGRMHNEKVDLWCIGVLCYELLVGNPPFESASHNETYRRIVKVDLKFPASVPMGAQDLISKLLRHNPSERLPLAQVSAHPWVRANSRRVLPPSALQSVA

[8] = biological target: T3, Aurora kinase A (Homo sapiens, UniProt O14965); assay: Inhibition of Aurora A (unknown origin) by FRET-based homogenous assay
T3 sequence (O14965 whole entry): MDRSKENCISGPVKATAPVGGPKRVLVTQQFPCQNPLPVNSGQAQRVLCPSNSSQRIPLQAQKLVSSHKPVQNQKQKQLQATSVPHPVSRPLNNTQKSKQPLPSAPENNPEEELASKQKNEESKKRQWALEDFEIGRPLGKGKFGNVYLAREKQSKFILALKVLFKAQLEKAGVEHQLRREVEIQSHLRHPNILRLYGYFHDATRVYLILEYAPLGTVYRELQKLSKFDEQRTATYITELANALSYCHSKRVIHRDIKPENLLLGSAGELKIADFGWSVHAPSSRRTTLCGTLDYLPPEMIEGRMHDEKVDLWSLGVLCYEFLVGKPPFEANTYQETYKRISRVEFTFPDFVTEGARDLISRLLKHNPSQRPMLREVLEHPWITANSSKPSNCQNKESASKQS

[9] = biological target: Serine/threonine-protein kinase Chk2 (Homo sapiens, UniProt O96017); assay: Inhibition of CHK2 (unknown origin) by FRET-based homogenous assay
Sequence of Serine/threonine-protein kinase Chk2 (O96017 whole entry): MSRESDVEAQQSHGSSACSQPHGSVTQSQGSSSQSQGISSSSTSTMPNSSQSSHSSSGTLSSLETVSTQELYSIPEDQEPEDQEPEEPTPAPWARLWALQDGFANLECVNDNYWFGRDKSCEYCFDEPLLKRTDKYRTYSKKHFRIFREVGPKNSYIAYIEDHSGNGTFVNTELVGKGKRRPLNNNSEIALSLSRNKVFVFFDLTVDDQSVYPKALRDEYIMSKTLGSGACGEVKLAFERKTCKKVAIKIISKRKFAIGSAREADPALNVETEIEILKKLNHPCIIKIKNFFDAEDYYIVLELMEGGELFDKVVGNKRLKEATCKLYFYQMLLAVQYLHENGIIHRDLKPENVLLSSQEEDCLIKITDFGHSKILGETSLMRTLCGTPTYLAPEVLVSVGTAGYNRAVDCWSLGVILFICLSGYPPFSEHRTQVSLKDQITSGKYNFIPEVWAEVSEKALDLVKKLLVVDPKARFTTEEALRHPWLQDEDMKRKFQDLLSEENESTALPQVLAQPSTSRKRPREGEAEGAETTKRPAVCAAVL

[10] = biological target: T2, Cytochrome P450 3A4; assay: Inhibition of CYP3A4 in supersomes (unknown origin) using 7-benzyloxy-4-trifluoromethylcoumarin as substrate after 30 mins; type: ADME
[11] = biological target: Cytochrome P450 2C9 (Homo sapiens, UniProt P11712); assay: Inhibition of CYP2C9 in supersomes (unknown origin) using MFC as substrate after 30 mins; type: ADME
Sequence of Cytochrome P450 2C9 (P11712 whole entry): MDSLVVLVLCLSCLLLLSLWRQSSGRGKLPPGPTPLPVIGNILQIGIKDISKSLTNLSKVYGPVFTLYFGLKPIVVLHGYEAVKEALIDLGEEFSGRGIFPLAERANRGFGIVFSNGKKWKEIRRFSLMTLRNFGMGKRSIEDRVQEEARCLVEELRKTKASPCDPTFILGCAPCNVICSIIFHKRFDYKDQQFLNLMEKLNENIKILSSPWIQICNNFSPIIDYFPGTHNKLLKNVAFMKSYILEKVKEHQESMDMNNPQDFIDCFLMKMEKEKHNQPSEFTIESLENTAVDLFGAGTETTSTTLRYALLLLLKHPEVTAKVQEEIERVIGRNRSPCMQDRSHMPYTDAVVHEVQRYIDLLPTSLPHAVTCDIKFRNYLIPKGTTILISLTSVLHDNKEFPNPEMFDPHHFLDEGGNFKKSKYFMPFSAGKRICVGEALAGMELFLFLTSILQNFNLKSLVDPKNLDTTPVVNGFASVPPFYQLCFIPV

[12] = Permeability of the compound at pH 7.4 by PAMPA; type: ADME; details: read-out: permeability
[13] = Cell cycle arrest in human HCT116 cells assessed as accumulation at sub-G1 phase at 1 uM after 2 days by flow cytometry; type: functional, cell-based; details: HCT-116
[14] = biological target: T4, Serine/threonine-protein kinase PLK4 (Homo sapiens, UniProt O00444); assay: Inhibition of GST-tagged human PLK4 (1-391 residues) phosphorylation by ELISA
T4 sequence (O00444 whole entry): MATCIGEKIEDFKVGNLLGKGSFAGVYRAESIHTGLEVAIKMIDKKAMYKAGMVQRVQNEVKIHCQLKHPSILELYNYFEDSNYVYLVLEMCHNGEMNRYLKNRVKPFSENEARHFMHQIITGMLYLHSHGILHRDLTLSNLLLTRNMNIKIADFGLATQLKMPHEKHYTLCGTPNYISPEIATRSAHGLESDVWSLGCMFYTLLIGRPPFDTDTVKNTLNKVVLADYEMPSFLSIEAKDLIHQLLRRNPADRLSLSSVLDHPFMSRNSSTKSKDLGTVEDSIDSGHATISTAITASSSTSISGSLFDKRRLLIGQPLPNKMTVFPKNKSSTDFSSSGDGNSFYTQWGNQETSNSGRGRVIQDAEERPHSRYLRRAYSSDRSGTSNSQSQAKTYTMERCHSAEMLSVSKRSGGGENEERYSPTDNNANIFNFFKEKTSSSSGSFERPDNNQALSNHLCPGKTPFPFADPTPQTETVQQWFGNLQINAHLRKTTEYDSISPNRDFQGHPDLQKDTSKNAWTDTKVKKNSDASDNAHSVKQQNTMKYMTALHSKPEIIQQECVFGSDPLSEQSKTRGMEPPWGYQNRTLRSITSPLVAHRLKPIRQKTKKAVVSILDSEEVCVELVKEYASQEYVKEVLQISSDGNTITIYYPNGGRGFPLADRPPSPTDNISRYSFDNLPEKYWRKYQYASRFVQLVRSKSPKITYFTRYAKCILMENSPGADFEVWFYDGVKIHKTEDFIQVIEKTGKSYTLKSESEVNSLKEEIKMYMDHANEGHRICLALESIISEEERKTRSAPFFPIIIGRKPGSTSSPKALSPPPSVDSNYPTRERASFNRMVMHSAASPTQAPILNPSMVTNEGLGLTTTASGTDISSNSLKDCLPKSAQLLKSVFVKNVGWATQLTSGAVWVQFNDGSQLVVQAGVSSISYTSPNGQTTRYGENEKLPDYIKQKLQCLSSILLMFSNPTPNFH

[15] = biological target: T1, Dual specificity protein kinase TTK; assay: Inhibition of SUMO-tagged human TTK (1-275 residues) compound pre-incubated for 15 mins prior ATP addition by MBP-based assay

SMILES | GI50 [1] [nM] | solubility [2] [µg/mL] | EC50 [3] [nM] | GI50 [4] [nM] | IC50 [5] [nM] | GI50 [6] [nM] | IC50 [7] [nM] | IC50 [8] [nM] | IC50 [9] [nM] | IC50 [10] [nM] | IC50 [11] [nM] | Papp [12] [×10⁻⁶ cm/s] | Activity [13] | IC50 [14] [nM] | IC50 [15] [nM]
NS(=O)(=O)c1cccc(-c2n[nH]c3ccc(NC(=O)C(c4ccsc4)N4CCCC4)cc23)c1 (racemic) | 90 | 9 (≈ 18.7 µM) | 420 | 70 | > 1000 | 90 | 720 | 900 | 100 | 4000 | 900 | 4.2 | Active | 89 | 2.9
CCc1ccccc1C(C(=O)Nc1ccc2[nH]nc(-c3cccc(S(N)(=O)=O)c3)c2c1)N(C)C (racemic) | 660 | 1.4 (≈ 2.93 µM) | 520 | 100 | 2900 | 160 | 480 | 400 | 420 | 700 | 2500 | 19 | Active | 83 | 3.6
